Values of other authors in paper PMC9516332 (Frontiers in Oncology, 2022).
Like-named read-outs stand apart in the source and are kept apart here.

Legend:
Conditions in all cases: cited from earlier work
[1] = target: panel of 255 wild-type kinases (Homo sapiens, UniProt O96013)
[2] = target: panel of 255 wild-type kinases (Homo sapiens, UniProt P54764)
[3] = target: panel of 255 wild-type kinases (Homo sapiens, UniProt Q02763)
[4] = target: T1, panel of 255 wild-type kinases (Homo sapiens, UniProt Q9UL54)
T1 sequence (Q9UL54 1-1235): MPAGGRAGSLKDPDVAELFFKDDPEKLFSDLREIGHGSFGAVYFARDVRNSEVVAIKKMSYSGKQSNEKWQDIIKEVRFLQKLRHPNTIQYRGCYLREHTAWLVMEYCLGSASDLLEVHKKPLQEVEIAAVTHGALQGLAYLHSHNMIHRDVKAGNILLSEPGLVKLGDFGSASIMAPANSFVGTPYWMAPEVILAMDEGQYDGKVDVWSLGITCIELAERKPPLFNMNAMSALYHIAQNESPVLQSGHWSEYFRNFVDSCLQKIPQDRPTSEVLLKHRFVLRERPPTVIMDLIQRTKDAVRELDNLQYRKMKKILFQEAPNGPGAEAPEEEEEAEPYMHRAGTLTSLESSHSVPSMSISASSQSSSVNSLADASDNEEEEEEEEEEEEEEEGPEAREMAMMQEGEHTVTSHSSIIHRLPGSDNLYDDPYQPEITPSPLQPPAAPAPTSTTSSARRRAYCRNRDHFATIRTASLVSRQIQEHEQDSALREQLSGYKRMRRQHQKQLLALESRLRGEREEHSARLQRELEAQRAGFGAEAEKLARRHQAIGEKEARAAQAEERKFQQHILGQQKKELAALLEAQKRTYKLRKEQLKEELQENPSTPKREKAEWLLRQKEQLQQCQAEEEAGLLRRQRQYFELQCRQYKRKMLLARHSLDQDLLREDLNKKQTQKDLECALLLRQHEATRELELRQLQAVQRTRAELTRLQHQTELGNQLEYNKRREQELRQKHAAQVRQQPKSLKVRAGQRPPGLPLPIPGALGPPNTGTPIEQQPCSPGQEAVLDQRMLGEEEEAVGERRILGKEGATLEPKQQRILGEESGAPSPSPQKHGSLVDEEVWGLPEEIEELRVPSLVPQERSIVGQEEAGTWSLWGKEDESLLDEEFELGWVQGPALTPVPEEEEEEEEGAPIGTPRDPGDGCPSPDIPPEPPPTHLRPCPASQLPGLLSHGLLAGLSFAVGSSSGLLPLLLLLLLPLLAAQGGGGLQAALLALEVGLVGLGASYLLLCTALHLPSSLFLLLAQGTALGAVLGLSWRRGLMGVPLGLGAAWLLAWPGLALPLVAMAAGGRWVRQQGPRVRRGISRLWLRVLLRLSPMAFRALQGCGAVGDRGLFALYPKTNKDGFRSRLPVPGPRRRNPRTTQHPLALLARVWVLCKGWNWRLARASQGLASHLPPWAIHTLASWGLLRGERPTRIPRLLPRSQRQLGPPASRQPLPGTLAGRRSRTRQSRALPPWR

[5] = target: T2, panel of 255 wild-type kinases (Homo sapiens, UniProt P21709)
T2 sequence (P21709 26-976): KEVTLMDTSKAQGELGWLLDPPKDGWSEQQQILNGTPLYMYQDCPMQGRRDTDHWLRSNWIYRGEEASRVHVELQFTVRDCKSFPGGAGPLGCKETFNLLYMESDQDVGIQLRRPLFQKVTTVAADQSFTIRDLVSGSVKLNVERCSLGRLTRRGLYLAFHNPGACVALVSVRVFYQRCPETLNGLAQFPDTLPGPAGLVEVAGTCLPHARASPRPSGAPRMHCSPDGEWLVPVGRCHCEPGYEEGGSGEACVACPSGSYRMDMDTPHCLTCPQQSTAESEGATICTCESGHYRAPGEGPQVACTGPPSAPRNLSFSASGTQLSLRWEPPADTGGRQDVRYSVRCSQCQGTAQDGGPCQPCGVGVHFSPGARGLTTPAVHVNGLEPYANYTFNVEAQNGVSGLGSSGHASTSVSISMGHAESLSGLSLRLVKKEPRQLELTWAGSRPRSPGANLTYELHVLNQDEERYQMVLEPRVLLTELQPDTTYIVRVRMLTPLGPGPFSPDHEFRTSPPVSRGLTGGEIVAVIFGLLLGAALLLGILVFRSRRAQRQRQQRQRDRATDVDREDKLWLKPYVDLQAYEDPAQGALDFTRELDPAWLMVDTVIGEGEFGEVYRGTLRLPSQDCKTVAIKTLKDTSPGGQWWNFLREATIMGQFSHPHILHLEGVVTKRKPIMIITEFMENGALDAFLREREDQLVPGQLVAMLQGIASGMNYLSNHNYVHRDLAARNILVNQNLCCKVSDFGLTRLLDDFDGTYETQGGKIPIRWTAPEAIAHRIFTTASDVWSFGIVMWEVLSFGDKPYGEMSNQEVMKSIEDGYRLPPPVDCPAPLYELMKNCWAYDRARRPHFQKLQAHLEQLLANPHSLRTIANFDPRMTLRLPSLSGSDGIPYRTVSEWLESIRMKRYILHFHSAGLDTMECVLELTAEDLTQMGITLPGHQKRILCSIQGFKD

[6] = PAK4, 1 µmol/L single concentration, ref DOI: 10.1158/1535-7163.MCT-18-0877
[7] = kinase EPHA4, 1 µmol/L single concentration, ref DOI: 10.1158/1535-7163.MCT-18-0877
[8] = kinase TIE2, 1 µmol/L single concentration, ref DOI: 10.1158/1535-7163.MCT-18-0877
[9] = kinase TAOK2, 1 µmol/L single concentration, ref DOI: 10.1158/1535-7163.MCT-18-0877
[10] = kinase EPHA1, 1 µmol/L single concentration, ref DOI: 10.1158/1535-7163.MCT-18-0877
[11] = PAK4, 1 µmol/L single concentration, ref DOI: 10.1371/journal.pone.0092146
[12] = kinase EPHA4, 1 µmol/L single concentration, ref DOI: 10.1371/journal.pone.0092146
[13] = kinase TIE2, 1 µmol/L single concentration, ref DOI: 10.1371/journal.pone.0092146
[14] = kinase TAOK2, 1 µmol/L single concentration, ref DOI: 10.1371/journal.pone.0092146
[15] = kinase EPHA1, 1 µmol/L single concentration, ref DOI: 10.1371/journal.pone.0092146

Structure (SMILES)	%-inhibition, PAK4 [1, 6]	%-inhibition at 1 µmol/L, EPHA4 [2, 7]	%-inhibition at 1 µmol/L, TIE2 [3, 8]	%-inhibition at 1 µmol/L, TAOK2 [4, 9]	%-inhibition at 1 µmol/L, EPHA1 [5, 10]	%-inhibition, PAK4 [1, 11]	%-inhibition at 1 µmol/L, EPHA4 [2, 12]	%-inhibition at 1 µmol/L, TIE2 [3, 13]	%-inhibition at 1 µmol/L, TAOK2 [4, 14]	%-inhibition at 1 µmol/L, EPHA1 [5, 15]	further results
CC#CC(=O)N1CCC[C@H]1c1nc(-c2ccc(C(=O)Nc3ccccn3)cc2)c2c(N)nccn12 [acalabrutinib]	-1.65%	-3%	-5.36%	5.31%	-0.591%	–	–	–	–	–	–
CCc1cc2c(cc1N1CCC(N3CCOCC3)CC1)C(C)(C)c1[nH]c3cc(C#N)ccc3c1C2=O [alectinib]	6.55%	3%	2%	5.52%	5.62%	–	–	–	–	–	–
COc1cc(N2CCC(N3CCN(C)CC3)CC2)ccc1Nc1ncc(Cl)c(Nc2ccccc2P(C)(C)=O)n1 [brigatinib]	–	–	–	–	–	–	–	–	–	–	%-inhibition, PAK4 [1]: 45%; %-inhibition at 1 µmol/L, EPHA4 [2]: 3%; %-inhibition at 1 µmol/L, TIE2 [3]: 75%; %-inhibition at 1 µmol/L, TAOK2 [4]: 16%; %-inhibition at 1 µmol/L, EPHA1 [5]: 61%
Cc1cc(Nc2ncc(Cl)c(Nc3ccccc3S(=O)(=O)C(C)C)n2)c(OC(C)C)cc1C1CCNCC1 [ceritinib]	13%	1.33%	-13%	7%	45%	–	–	–	–	–	–
O=C(c1ccc(F)c(F)c1Nc1ccc(I)cc1F)N1CC(O)([C@@H]2CCCCN2)C1 [cobimetinib]	2%	3%	19%	5.42%	0.613%	–	–	–	–	–	–
C[C@@H](Oc1cc(-c2cnn(C3CCNCC3)c2)cnc1N)c1c(Cl)ccc(F)c1Cl [crizotinib]	–	–	–	–	–	-5.56%	58%	83%	33%	97%	–
CC(C)(C)c1nc(-c2cccc(NS(=O)(=O)c3c(F)cccc3F)c2F)c(-c2ccnc(N)n2)s1 [dabrafenib]	–	–	–	–	–	11%	12%	81%	34%	44%	–
C=CC(=O)N1CCC[C@@H](n2nc(-c3ccc(Oc4ccccc4)cc3)c3c(N)ncnc32)C1 [ibrutinib]	11%	13%	29%	5%	50%	–	–	–	–	–	–
CO[C@@H]1[C@H](N(C)C(=O)c2ccccc2)C[C@H]2O[C@]1(C)n1c3ccccc3c3c4c(c5c6ccccc6n2c5c31)C(=O)NC4 [midostaurin]	30%	2.15%	30%	9%	9%	–	–	–	–	–	–
C=CC(=O)Nc1cc(Nc2nccc(-c3cn(C)c4ccccc34)n2)c(OC)cc1N(C)CCN(C)C [osimertinib]	12%	3.54%	3.73%	7%	13%	–	–	–	–	–	–
CC(=O)Nc1cccc(-n2c(=O)n(C3CC3)c(=O)c3c(Nc4ccc(I)cc4F)n(C)c(=O)c(C)c32)c1 [trametinib]	–	–	–	–	–	-0.675%	-5.3%	-7%	-2.59%	-1.61%	–
CCCS(=O)(=O)Nc1ccc(F)c(C(=O)c2c[nH]c3ncc(-c4ccc(Cl)cc4)cc23)c1F [vemurafenib]	–	–	–	–	–	-7%	-2%	-2.42%	5.35%	-9%	–
